What is called Emax is the greatest response seen or fitted, relative to the assay's reference. By pEC50 is commonly meant −log10 of the EC50, conventionally taken in molar units.

pEC50: −log10 of the molar value.

This assay addresses T1, human mAChR M4 (Homo sapiens, UniProt P08173).
T1 construct: expressed in transfected cells; host or cells: CHO-K1 (American Type Culture Collection), stably expressing hM4 and Gqi5
T1 sequence (P08173 1-479): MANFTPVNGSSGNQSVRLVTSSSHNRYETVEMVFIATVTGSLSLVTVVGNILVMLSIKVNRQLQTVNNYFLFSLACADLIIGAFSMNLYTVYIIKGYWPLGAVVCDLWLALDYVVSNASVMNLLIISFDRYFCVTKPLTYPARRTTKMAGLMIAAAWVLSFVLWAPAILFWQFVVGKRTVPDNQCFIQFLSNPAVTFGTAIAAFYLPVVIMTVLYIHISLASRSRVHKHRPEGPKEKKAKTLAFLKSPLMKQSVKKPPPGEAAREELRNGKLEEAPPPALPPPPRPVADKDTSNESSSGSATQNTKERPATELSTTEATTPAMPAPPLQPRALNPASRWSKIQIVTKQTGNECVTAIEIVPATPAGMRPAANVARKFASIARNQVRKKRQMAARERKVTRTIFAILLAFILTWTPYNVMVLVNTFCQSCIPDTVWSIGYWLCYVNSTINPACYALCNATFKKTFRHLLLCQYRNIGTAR
Description: mAChR M4 cell-based functional assay: calcium mobilization (Fluo-4, FDSS), potentiation of EC20 acetylcholine response in hM4-Gqi5 CHO-K1 cells. Conditions: human M4; for Emax at 30 µM: CHO-K1, % ACh maximum at 30 μM; for pEC50: potentiation of EC20 acetylcholine response, calcium mobilization. How it is done: Human and rat M4 cDNAs, along with the chimeric G protein Gqi5, were transfected into Chinese hamster ovary (CHO-K1) cells purchased from the American Type Culture Collection using Lipofectamine2000. hM4-Gqi5 cells were grown in Ham's F-12 medium containing 10% heat-inactivated fetal bovine serum (FBS), 20 mM HEPES, 50 μg/mL G418 sulfate, and 500 μg/mL Hygromycin B. rM4-Gqi5 cells were grown in DMEM containing 10% heat-inactivated FBS, 20 mM HEPES, 400 μg/mL G418 sulfate, and 500 μg/mL Hygromycin B.
For high throughput measurement of agonist-evoked increases in intracellular calcium, CHO-K1 cells stably expressing muscarinic receptors were plated in growth medium lacking G418 and hygromycin at 15,000 cells/20 μL/well in Greiner 384-well black-walled, tissue culture (TC)-treated, clear-bottom plates (VWR). Cells were incubated overnight at 37° C. and 5% CO2. The next day, cells were washed using an ELX 405 (BioTek) with assay buffer; the final volume was then aspirated to 20 μL. Next, 20 μL of a […] of Fluo-4/acetoxymethyl ester (Invitrogen, Carlsbad, CA), prepared as a 2.3 mM stock in DMSO and mixed in a 1:1 ratio with 10% (w/v) Pluronic F-127 and diluted in assay buffer, was added to the wells and the cell plates were incubated for 50 min at 37° C. and 5% CO2. Dye was removed by washing with the ELX 405 and the final volume was aspirated to 20 μL. Compound master plates were formatted in an 11 point concentration-response curve (CRC) format (1:3 dilutions) in 100% DMSO with a starting concentration of 10 mM using a BRAVO liquid handler (Agilent). Test compound CRCs were then transferred to daughter plates (240 nL) using the Echo acoustic plate reformatter (Labcyte, Sunnyvale, CA) and then diluted into assay buffer (40 μL) to a 2× stock using a Thermo Fisher Combi (Thermo Fisher Scientific, Waltham, MA).
Calcium flux was measured using the Functional Drug Screening System (FDSS) 6000 or 7000 (Hamamatsu Corporation, Tokyo, Japan) as an increase in the fluorescent static ratio. Compounds were applied to cells (20 μL, 2X) using the automated system of the FDSS at 2-4 seconds into the protocol and the data were collected at 1 Hz. At 144 seconds, 10 μL of an EC20 concentration of the muscarinic receptor agonist acetylcholine was added (5×), followed by the addition of 12 μL of an […] concentration of acetylcholine at the 230 second time point (5×). Agonist activity was analyzed as a concentration-dependent increase in calcium mobilization upon compound addition. Positive allosteric modulator activity was analyzed as a concentration-dependent increase in the EC20 acetylcholine response. Antagonist activity was analyzed as a concentration-dependent decrease in the EC20 acetylcholine response. Concentration-response curves were generated using a four-parameter logistical equation in XLFit curve fitting software (IDBS, Bridgewater, NJ) for Excel (Microsoft, Redmond, WA) or Prism (GraphPad Software, Inc., San Diego, CA).
Compounds were synthesized as described above. Activity (EC50 and Emax) was determined in the mAChR M4 cell-based functional assay as described above and the data are shown in Table 4. The compound number corresponds to the compound numbers used in Tables 1-3.
In general terms: Calcium flux is commonly read through the fluorescence of an indicator in the cells.

`Cc1cc(=O)n2nc(N3CCc4ncc(-c5ccc(F)cc5F)cc4C3)c(C)c(C)c2n1` [Compound 1-279, 7-(3-(2,4-difluorophenyl)-7,8-dihydro-1,6-naphthyridin-6(5H)-yl)-2,8,9-trimethyl-4H-pyrimido[1,2-b]pyridazin-4-one]: the Emax at 30 µM is 81% and the pEC50 is 5.95.
`Cc1c(N2CCc3ncc(-c4ccc(N(C)C)nc4)cc3C2)nn2c(=O)cc(C(F)F)nc2c1C` [Compound 1-92, 2-(difluoromethyl)-7-(3-(6-(dimethylamino)pyridin-3-yl)-7,8-dihydro-1,6-naphthyridin-6(5H)-yl)-8,9-dimethyl-4H-pyrimido[1,2-b]pyridazin-4-one]: the Emax at 30 µM is 76% and the pEC50 was 6.47.
For the compound `Cc1cc(=O)n2nc(N3CCc4ncc(-c5ccncc5C)cc4C3)c(C)cc2n1` [Compound 1-241, 2,8-dimethyl-7-(3-(3-methylpyridin-4-yl)-7,8-dihydro-1,6-naphthyridin-6(5H)-yl)-4H-pyrimido[1,2-b] pyridazin-4-one], the Emax at 30 µM was found to be 87% and the pEC50 was 6.64.
Take `Cc1cc(=O)n2nc(N3CCc4ncc(-c5ccccc5C5CC5)cc4C3)c(C)c(C)c2n1` [Compound 1-248, 7-(3-(2-cyclopropylphenyl)-7,8-dihydro-1,6-naphthyridin-6(5H)-yl)-2,8,9-trimethyl-4H-pyrimido[1,2-b]pyridazin-4-one]: the Emax at 30 µM worked out at 80% and the pEC50 is 6.07.
Take `COCc1cc(=O)n2nc(N3CCc4ncc(-c5cc(F)ncc5C)cc4C3)c(C)cc2n1` [Compound 1-328, 7-(3-(2-fluoro-5-methylpyridin-4-yl)-7,8-dihydro-1,6-naphthyridin-6(5H)-yl)-2-(methoxymethyl)-8-methyl-4H-pyrimido[1,2-b] pyridazin-4-one]: the Emax at 30 µM was found to be 68% and the pEC50 is 6.32.
Consider `Cc1cc2nc(C(F)(F)F)cc(=O)n2nc1N1CCc2ncc(C(F)(F)F)cc2C1` [Compound 1-17, 8-methyl-2-(trifluoromethyl)-7-(3-(trifluoromethyl)-7,8-dihydro-1,6-naphthyridin-6(5H)-yl)-4H-pyrimido[1,2-b]pyridazin-4-one], for which the Emax at 30 µM was 79% and the pEC50 was 6.98.
For `Cc1cc2nccc(=O)n2nc1N1CCc2ncc(NCc3cscn3)cc2C1` [Compound 2-130, 8-methyl-7-(3-((thiazol-4-ylmethyl)amino)-7,8-dihydro-1,6-naphthyridin-6(5H)-yl)-4H-pyrimido[1,2-b]pyridazin-4-one], the Emax at 30 µM stood at 87% and the pEC50 is 6.29.
For `Cc1c(N2CCc3ncc(-c4cnn(C(F)F)c4)cc3C2)nn2c(=O)ccnc2c1C` [Compound 1-339, 7-(3-(1-(difluoromethyl)-1H-pyrazol-4-yl)-7,8-dihydro-1,6-naphthyridin-6(5H)-yl)-8,9-dimethyl-4H-pyrimido[1,2-b]pyridazin-4-one], in that order: 77% and 6.64.
Consider `Cc1cc(=O)n2nc(N3CCc4ncc(-c5ccncc5)cc4C3)c(C)c(C)c2n1` [Compound 1-244, 2,8,9-trimethyl-7-(3-(pyridin-4-yl)-7,8-dihydro-1,6-naphthyridin-6(5H)-yl)-4H-pyrimido[1,2-b]pyridazin-4-one], for which the Emax at 30 µM was found to be 82% and the pEC50 is 6.95.
`Cc1cc(=O)n2nc(N3CCc4ncc(-c5cc(F)c(F)cc5F)cc4C3)c(C)cc2n1` [Compound 1-208, 2,8-dimethyl-7-(3-(2,4,5-trifluorophenyl)-7,8-dihydro-1,6-naphthyridin-6(5H)-yl)-4H-pyrimido[1,2-b]pyridazin-4-one]: the Emax at 30 µM was found to be 86% and the pEC50 was 6.29.
`Cc1cc2nccc(=O)n2nc1N1CCc2ncc(N3CCOC(Cc4ccccc4)C3)cc2C1` (centres unmarked) [Compound 2-99, 7-(3-(2-benzylmorpholino)-7,8-dihydro-1,6-naphthyridin-6(5H)-yl)-8-methyl-4H-pyrimido[1,2-b]pyridazin-4-one]: the Emax at 30 µM came out at 66% and the pEC50 was 6.38.
Take `Cc1ccc(-c2cnc3c(c2)CN(c2nn4c(=O)cc(C(=O)NC5(C#N)CC5)nc4cc2C)CC3)cn1` [Compound 1-76, N-(1-cyanocyclopropyl)-8-methyl-7-(3-(6-methylpyridin-3-yl)-7,8-dihydro-1,6-naphthyridin-6(5H)-yl)-4-oxo-4H-pyrimido[1,2-b]pyridazine-2-carboxamide]: the Emax at 30 µM is 79% and the pEC50 was 6.83.
In the same order, the values of `COc1cnccc1Nc1cnc2c(c1)CN(c1nn3c(=O)ccnc3cc1C)CC2` [Compound 2-112, 7-(3-((3-methoxypyridin-4-yl)amino)-7,8-dihydro-1,6-naphthyridin-6(5H)-yl)-8-methyl-4H-pyrimido[1,2-b]pyridazin-4-one] are 64% and 5.57.
With `COc1cncc(-c2cnc3c(c2)CN(c2nn4c(=O)cc(C(F)(F)F)nc4cc2C)CC3)c1` [Compound 1-74, 7-(3-(5-methoxypyridin-3-yl)-7,8-dihydro-1,6-naphthyridin-6(5H)-yl)-8-methyl-2-(trifluoromethyl)-4H-pyrimido[1,2-b]pyridazin-4-one], the Emax at 30 µM is 102% and the pEC50 is 6.35.
Regarding `COCc1cc(=O)n2nc(N3CCc4ncc(-c5cnc(F)cc5C)cc4C3)c(C)cc2n1` [Compound 1-327, 7-(3-(6-fluoro-4-methylpyridin-3-yl)-7,8-dihydro-1,6-naphthyridin-6(5H)-yl)-2-(methoxymethyl)-8-methyl-4H-pyrimido[1,2-b]pyridazin-4-one], the Emax at 30 µM was 71% and the pEC50 is 6.51.
On to `Cc1cc(Nc2cnc3c(c2)CN(c2nn4c(=O)ccnc4cc2C)CC3)cnc1Cl` [Compound 2-132, 7-(3-((6-chloro-5-methylpyridin-3-yl)amino)-7,8-dihydro-1,6-naphthyridin-6(5H)-yl)-8-methyl-4H-pyrimido[1,2-b]pyridazin-4-one], for which the Emax at 30 µM was 93% and the pEC50 is 6.23.
With `Cc1cc2nccc(=O)n2nc1N1CCc2ncc(-c3ccnn3C(C)C)cc2C1` [Compound 1-396, 7-(3-(1-isopropyl-1H-pyrazol-5-yl)-7,8-dihydro-1,6-naphthyridin-6(5H)-yl)-8-methyl-4H-pyrimido[1,2-b]pyridazin-4-one], the Emax at 30 µM stood at 60% and the pEC50 was 6.22.
As to `Cc1c(N2CCc3ncc(-c4ccc(N5CCCCC5)nc4)cc3C2)nn2c(=O)ccnc2c1C` [Compound 1-97, 8,9-dimethyl-7-(3-(6-(piperidin-1-yl)pyridin-3-yl)-7,8-dihydro-1,6-naphthyridin-6(5H)-yl)-4H-pyrimido[1,2-b]pyridazin-4-one], the Emax at 30 µM was determined as 79% and the pEC50 was 6.40.
For `Cc1ccc(-c2cnc3c(c2)CN(c2nn4c(=O)ccnc4c(C)c2C)CC3)cn1` [Compound 1-61, 8,9-Dimethyl-7-(3-(6-methylpyridin-3-yl)-7,8-dihydro-1,6-naphthyridin-6(5H)-yl)-4H-pyrimido[1,2-b]pyridazin-4-one], in that order: 96% and 7.15.

The values above are taken from patent US20250101041A1, “POSITIVE ALLOSTERIC MODULATORS OF THE MUSCARINIC ACETYLCHOLINE RECEPTOR M4” (Vanderbilt University, priority 2022, published 2025).
